# Measurements: patent US9926340B2, “NAD analogs and methods of using said NAD analogs in determining ribosylation of proteins with PARP mutants” (The Board of Regents of the University of Texas System, priority 2015, dated 2018)
# Entries after “also recorded” stand apart in the source; their conditions may differ.
# Target: T1, asPARP-1 in nuclei from Parp1−/− MEFs (Mus musculus, UniProt P11103, L876A)
# T1 construct: expressed in transfected cells; host or cells: Parp1-/- mouse embryonic fibroblasts, lentiviral transduction, isolated nuclei
# Assay: 8-Bu(3-yne)T-ADP-ribosylation reactions in intact nuclei
# Assay type: cell-based
# Settings: Parp1−/− MEF nuclei, 250 μM analog, 30 minutes at 25° C.
# Method: 50% confluent MEF cells expressing asPARP-1 were harvested with cold PBS using a rubber policeman and collected by centrifugation for 5 minutes at 800 RCF at 4° C. Cells were resuspended for 10 minutes to facilitate cell swelling in Nuclear Isolation Buffer (10 mM HEPES, pH 8.0, 2 mM MgCl2, 3 mM CaCl2, 300 mM Sucrose, 1 mM DTT, 1 mM PMSF, 4 mM Benzamidine, 1 μM Aprotinin, 100 μM Leupeptin, 1 μM Pepstatin A, and 1 in 250 parts SIGMA Phosphatase Inhibitor Cocktails 2 and 3). Nuclei were released from cells by addition of NP-40 to 0.65% under medium vortex and immediately collected by centrifugation at 10,000 RCF for 1 minute at 4° C. […]
# Following 8-Bu(3-yne)T-ADP-ribosylation in intact nuclei from MEFs as described above, the nuclei were washed once with Nuclei Click Reaction Buffer (10 mM HEPES, pH 8.0, 10 mM NaCl, 10 mM spermidine, 0.1% NP-40, with freshly added protease inhibitors) and then clicked twice to Alexa Fluor 488 by the sequential addition of 100 μM azido-Alexa Fluor 488 (Life Technologies), a pre-formed complex of CuSO4:THPTA (1.0 mM:5.0 mM), and 5 mM sodium ascorbate. […] Fluorescence was visualized via confocal microscopy using a Leica TCS SP2 Confocal Microscope.
# T1 sequence (P11103 whole entry L876A): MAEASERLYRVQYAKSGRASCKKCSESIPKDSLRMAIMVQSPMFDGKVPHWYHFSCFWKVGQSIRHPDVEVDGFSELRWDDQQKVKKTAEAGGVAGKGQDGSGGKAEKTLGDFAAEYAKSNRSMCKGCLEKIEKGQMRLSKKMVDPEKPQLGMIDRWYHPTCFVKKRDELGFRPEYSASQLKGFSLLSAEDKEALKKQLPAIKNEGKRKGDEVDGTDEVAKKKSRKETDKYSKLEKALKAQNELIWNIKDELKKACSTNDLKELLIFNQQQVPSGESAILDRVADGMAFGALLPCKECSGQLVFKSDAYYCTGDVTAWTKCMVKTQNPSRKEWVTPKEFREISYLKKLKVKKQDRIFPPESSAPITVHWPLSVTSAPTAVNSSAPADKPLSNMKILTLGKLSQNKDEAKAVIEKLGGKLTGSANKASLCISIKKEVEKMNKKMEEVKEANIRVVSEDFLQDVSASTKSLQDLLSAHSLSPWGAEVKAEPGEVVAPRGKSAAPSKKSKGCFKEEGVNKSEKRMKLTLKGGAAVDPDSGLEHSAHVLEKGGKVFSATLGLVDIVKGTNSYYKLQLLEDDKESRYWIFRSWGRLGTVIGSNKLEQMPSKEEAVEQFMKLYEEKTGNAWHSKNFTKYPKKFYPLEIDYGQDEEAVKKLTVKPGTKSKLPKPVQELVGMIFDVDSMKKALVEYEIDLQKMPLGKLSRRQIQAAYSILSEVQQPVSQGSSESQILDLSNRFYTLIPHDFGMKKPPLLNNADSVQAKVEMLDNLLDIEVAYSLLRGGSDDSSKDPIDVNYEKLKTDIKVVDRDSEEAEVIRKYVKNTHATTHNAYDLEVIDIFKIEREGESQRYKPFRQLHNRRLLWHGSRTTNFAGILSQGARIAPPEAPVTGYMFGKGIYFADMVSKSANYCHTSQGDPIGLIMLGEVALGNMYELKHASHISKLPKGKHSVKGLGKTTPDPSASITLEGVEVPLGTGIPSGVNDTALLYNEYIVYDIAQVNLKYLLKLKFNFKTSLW
smiles,measurement,value
C#CCCSc1nc2c(N)ncnc2n1[C@@H]1O[C@H](COP(=O)(O)OP(=O)(O)OC[C@H]2O[C@@H]([n+]3cccc(C(N)=O)c3)C(O)C2O)[C@H](O)C1O (stereo partly shown) [8-Bu(3-yne)T-NAD^+],ADP-ribosylation in intact nuclei expressing asPARP-1,catalytically active; also recorded: clearly evident
